Data on three molecules can be found in patent US11312939B2, “Constructs for chimeric antigen receptors” (Carisma Therapeutics Inc., priority 2020, dated 2022).

For test [1], the system named is Human macrophages electroporated with HER2 CAR mRNA. Put plainly: Cytokine treatment of HER2 CAR mRNA macrophages: viability, CAR expression, M1/M2 markers by flow cytometry. It is filed as cell-based. Particulars: days 2 and 7. Here is the method:
Human macrophages were electroporated with HER2 CAR mRNA comprising m6AGCap1 and PsU modifications. Cells were cultured with cytokines that induce an M1 phenotype such as IFN-alpha, IFN-beta, IFN-gamma, IFN-gamma plus lipopolysaccharide (LPS), TNF-alpha, IL-6 or a STING ligand (STING-L) for up to 48 hours and then cytokines were washed off and fresh media was added. CAR expression and M1 marker expression were measured on days 2 and 7 after transfection. Fluorescent labeled HER2+ breast cancer cells (CRL2351) were co-cultured with HER2 CAR macrophages two days after the macrophages were transfected. Cancer cell growth was monitored via its fluorescence on an Incucyte® live imaging microscope every four hours. The Effector (CAR macrophage) to Target (cancer cell) ratio was 5:1.
Five different mRNA modifications were also tested to determine if interferon treatment differentially affected macrophages transfected with mRNA comprising different modifications. Human macrophages were electroporated with HER2 CAR mRNA comprising different mRNA modifications. CAR expression and M1 markers were detected by Flow Cytometry (Attune) on day four after electroporation. Day 4 CAR macrophage cells were then co-cultured with a Nuc-Light labeled, HER2+ breast cancer cell line (CRL2351) at an Effector (CAR macrophage) to Target (cancer cell) ratio of 5:1. Cancer cell growth was monitored via its fluorescence on an Incucyte® live imaging microscope every four hours.
Human macrophages were electroporated with 300 nM CAR mRNA comprising m6AGCap1 and PsU modifications. Cells were cultured with 20 ng/mL IFNs for 24 hours and then the cells were washed to remove cytokines. CAR expression was detected by Flow Cytometry (Attune) on day 2 after transfection. Cells were then co-cultured with a Nuc-Light labeled, HER2+ breast cancer cell line (CRL2351) at the Effector to Target ratio of 3:1. Cancer cell growth was monitored via its fluorescence on an Incucyte® live imaging microscope. CAR expression and M1 markers in macrophages were detected by Flow Cytometry (Attune) on day 7 after transfection.

Test [2] relates to HER2 CAR macrophages co-cultured with HER2+ breast cancer cells (CRL2351). Kind of test: Cytokine secretion of interferon treated HER2 CAR macrophages in co-culture (MSD). It counts as cell-based, human. The conditions noted are these: E:T 3:1, supernatant at 48 hours. As to the method: Human macrophages were electroporated with 150 nM HER2 CAR mRNA comprising m6AGCap1 and PsU modifications. HER2+ breast cancer cells (CRL2351) were co-cultured with CAR macrophages after the macrophages were transfected with the CAR mRNA at an Effector (CAR macrophage) to Target (cancer cell) ratio of 3:1. Supernatant was collected 48 hours after the cancer cells and macrophages were co-cultured and cytokine levels were measured using a Meso Scale Discovery (MSD) instrument.

Test [3] deals with Human macrophages transfected with mCherry mRNA. Put plainly: mCherry mRNA expression in transfected macrophages (Incucyte). It counts as cell-based. The conditions noted are these: cultured one day with different doses. As to the method:
Human macrophages were transfected with mCherry mRNA comprising m6AGCap1 and PsU or N1 mPsU modifications and were then cultured for one day with different doses of IFN-γ. mCherry expression was monitored on an Incucyte® live imaging microscope.
In order to determine whether an RNaseL inhibitor could rescue IFN-γ-induced instability of transfected mRNA, human macrophages were treated with 1 μM sunitinib (an RNaseL inhibitor) two hours prior to the transfection of mCherry mRNA comprising m6AGCap1 and PsU modifications. Transfected cells were then cultured for one day with different dosages of IFN-γ. mCherry expression was monitored on an Incucyte® live imaging microscope.
The effect of another RNaseL inhibitor (RLI or ABCE1) was also tested to further validate the concept. Human macrophages were co-transfected with mRNA encoding mCherry comprising m6AGCap 1 and PsU modifications and with mRNA encoding ABCE1.

Test [4] deals with Her2-Zeta CAR expressing macrophages. Kind of test: Priming of CAR macrophages with plate-coated agonists, M1 and M2 surface markers. It counts as cell-based, human. The conditions noted are these: plate-coated protein, 3 days. As to the method: (§1) To generate Her2-Zeta CAR expressing macrophages, primary human macrophages were suspended in EP buffer (MaxCyte) containing 300 nM mRNA (TriLink) at a concentration of 90×10^6 cells/mL. 100 μL of cell mixture was added to an electroporation cassette (OC100×2; MaxCyte) and electroporated using the Experimental T cell 1 setting. Cells were removed from the cassette, plated in 3 mL of TexMACS media (Miltenyi Biotech) containing 20% FBS (Gibco) on UpCell plates (Thermo Scientific), and incubated overnight at 37 C and 5% CO2.
(§2) Recombinant CD40 ligand (Peprotech), 4-1BB ligand (Enzo Life Sciences), and 4-1BB receptor (Peprotech) were resuspended in molecular grade water to a stock concentration of 100 μg/mL. Stock solution was then used to create working solutions in PBS ranging from 2-0.002 μg/mL. 100 uL of working solution was added to wells in a 96-well plate and left at room temperature for 4 h.
For detection of cell surface proteins, macrophages were plated onto wells coated with agonist molecules in a final volume of 200 uL TexMACS media+10% FBS+10 ng/mL GM-CSF and incubated for 3 days at 37 C and 5% CO2. Cells were incubated in 300 μL Accutase (Sigma) for 30 min and transferred to 96-well round bottom plate for staining. Cells were incubated in FACS buffer containing 20 μg/mL Her2-His for 20 min at RT, followed by incubation in Human TruStain FcX for 10 min at RT. […]

Test [5] concerns CRL-2351 cells expressing nuclear GFP. Kind of test: Priming of CAR macrophages with plate-coated agonists, tumor cell killing. It is filed as cell-based. The conditions noted are these: plate-coated protein, 3 h priming. As to the method: as §1, §2
Plates were removed from the incubator and left at room temperature for 30 min. Cells were detached from plate, counted using the NC-200 automated cell counter (Chemomtech), and re-suspended in TexMACS media with 10% FBS. […] Cell lysis was detected using Incucyte® analysis (Essen Bioscience). Tumor cell death was calculated by integrated GFP intensity per well relative to time 0.

Consider IFN-α, for which, in test [1], the “M1 phenotype based on CD86 expression” value is reported as “induction of an M1 phenotype” and the “M2 markers based on CD163 expression” value is reported as “reduction of M2 markers”. In test [2], the “secretion of IL-6, IL-8 and TNFα from macrophages” value is “increased secretion of the cytokines IL-6, IL-8 and TNFα”.

“IFN-γ: interferon cytokine that induces an M1 phenotype”: the “mCherry mRNA expression” value in test [3] is “reduced mCherry mRNA expression”. For the same molecule, in test [1], the “M1 phenotype based on CD86 expression” value is “induction of an M1 phenotype” and the “M2 markers based on CD163 expression” value is “reduction of M2 markers”. In addition, the “secretion of IL-6, IL-8 and TNFα from macrophages” value in test [2] is “increased secretion of the cytokines IL-6, IL-8 and TNFα”.

B1: CD40L: Recombinant CD40 ligand (Peprotech), CD40 agonist (protein, UniProt P29965 113-261, looked up)
CD40 ligand, soluble form: MQKGDQNPQIAAHVISEASSKTTSVLQWAEKGYYTMSNNLVTLENGKQLTVKRQGLYYIYAQVTFCSNREASSQAPFIASLCLKSPGRFERILLRAANTHSSAKPCGQQSIHLGGVFELQPGASVFVNVTDPSQVSHGTGFTSFGLLKL
For the molecule B1, the “M1 phenotype of mRNA CAR macrophages (M1 and M2 markers)” value in test [4] is recorded as “induced an M1 phenotype”. Further, in test [5], the “tumor killing ability of macrophages and CAR macrophages” value is reported as “significantly improved the tumor killing ability”.
